Values quoted from earlier work in patent publication US6380174B1, “Slime-removing composition for paper manufacture and method of controlling slime using the same” (SK Corporation, priority 1999, dated 2002).

Test system: slime-causing microorganisms

Compound: N#CC(Br)(Br)C(N)=O [DBNPA, 2,2-dibromo-3-nitrilepropionamide]
- amount required for early sterilization (after 3 hours): 50 ppm
- amount necessary for sufficient sterilizing activity (after 24 hours): 5 ppm
